Test results reported in US10112899B2 (ViiV HEALTHCARE UK LIMITED, priority 2014, dated 2018).

Test system: HIV in the HTLV-1 transformed cell line MT-4
Experiment: organism not typed
Type: cell-based
Conditions: MT4, 96 h, MT-4 cells; luciferase/cell titer glo readout after 96 hours; 10 point dose response

SMILES | IC50 [µM]
COc1cc(C(=O)N2Cc3c(C)c(-c4cc(F)c5c(c4C)CCCO5)c([C@H](OC(C)(C)C)C(=O)O)c(C)c3C2)ccc1C (atropisomer, axis not shown; (M)) [Example 156, (S)-2-(tert-butoxy)-2-(6-((M)-8-fluoro-5-methylchroman-6-yl)-2-(3-methoxy-4-methylbenzoyl)-4,7-dimethylisoindolin-5-yl)acetic acid] | 0.003
COC1CCCC(C(=O)N2Cc3c(C)c(-c4ccc(C)cc4)c([C@H](OC(C)(C)C)C(=O)O)c(C)c3C2)C1 (stereo partly drawn) [Example 244, (2S)-2-(tert-butoxy)-2-(2-(3-methoxycyclohexanecarbonyl)-4,7-dimethyl-6-(p-tolyl)isoindolin-5-yl)acetic acid] | 0.014
Cc1ccc(-c2c(C)c3c(c(C)c2[C@H](OC(C)(C)C)C(=O)O)CN(C(=O)c2ccc(F)cc2)C3)cc1 [Example 254, (S)-2-(tert-butoxy)-2-(2-(4-fluorobenzoyl)-4,7-dimethyl-6-(p-tolyl)isoindolin-5-yl)acetic acid] | 0.004
Cc1ccc(-c2c(C)c3c(c(C)c2[C@H](OC(C)(C)C)C(=O)O)CN(C(=O)N2CCN(C)CC2)C3)cc1 [Example 71, (2S)-2-(tert-butoxy)-2-[4,7-dimethyl-6-(4-methylphenyl)-2-(4-methylpiperazine-1-carbonyl)-2,3-dihydro-1H-isoindol-5-yl]acetic acid] | 0.276
Cc1ccc(-c2c(C)c3c(c(C)c2[C@H](OC(C)(C)C)C(=O)O)CN(S(=O)(=O)c2ccc(F)cc2)C3)cc1 [Example 49, (2S)-2-(tert-butoxy)-2-[2-(4-fluorobenzenesulfonyl)-4,7-dimethyl-6-(4-methylphenyl)-2,3-dihydro-1H-isoindol-5-yl]acetic acid] | 0.1
Cc1ccc(-c2c(C)c3c(c(C)c2[C@H](OC(C)(C)C)C(=O)O)CN(Cc2ccc(Cl)cc2)C3)cc1 [Example 18, (S)-2-(tert-butoxy)-2-(2-(4-chlorobenzyl)-4,7-dimethyl-6-(p-tolyl)isoindolin-5-yl)acetic acid] | 0.075
Cc1c(-c2c(C)c3c(c(C)c2[C@H](OC(C)(C)C)C(=O)O)CN(C(=O)c2ccc(Cl)cc2)C3)cc(F)c2c1CCCO2 (atropisomer, axis not shown; (M)) [Example 198, (S)-2-(tert-butoxy)-2-((M)-2-(4-chlorobenzoyl)-6-(8-fluoro-5-methylchroman-6-yl)-4,7-dimethylisoindolin-5-yl)acetic acid] | 0.005
Cc1ccc(-c2c(C)c3c(c(C)c2[C@H](OC(C)(C)C)C(=O)O)CN(C(=O)c2ccc(C)nc2)C3)cc1 [Example 283, (S)-2-(tert-butoxy)-2-(4,7-dimethyl-2-(6-methylnicotinoyl)-6-(p-tolyl)isoindolin-5-yl)acetic acid] | 0.013
Cc1ccc(-c2c(C)c3c(c(C)c2C(OC(C)(C)C)C(=O)O)CN(Cc2ccccc2)C3)cc1 (stereo not drawn) [Example 9, 2-(2-Benzyl-4,7-dimethyl-6-(p-tolyl)isoindolin-5-yl)-2-(tert-butoxy)acetic acid] | 0.098
Cc1ccc(-c2c(C)c3c(c(C)c2[C@H](OC(C)(C)C)C(=O)O)CN(C(=O)c2cc(C)cc(F)c2)C3)cc1 [Example 123, (S)-2-(tert-butoxy)-2-(2-(3-fluoro-5-methylbenzoyl)-4,7-dimethyl-6-(p-tolyl)isoindolin-5-yl)acetic acid] | 0.004
Cc1c2c(c(C)c([C@H](OC(C)(C)C)C(=O)O)c1C1=CCC(C)(C)CC1)CN(C(=O)c1cccc3c1OCO3)C2 [Example 307, (S)-2-(2-(benzo[d][1,3]dioxole-4-carbonyl)-6-(4,4-dimethylcyclohex-1-en-1-yl)-4,7-dimethylisoindolin-5-yl)-2-(tert-butoxy)acetic acid] | 0.004
Cc1ccc(-c2c(C)c3c(c(C)c2[C@H](OC(C)(C)C)C(=O)O)CN(C(=O)c2cccc4c2OCO4)C3)c(Cl)c1 [Example 309, (2S)-2-(2-(benzo[d][1,3]dioxole-4-carbonyl)-6-(2-chloro-4-methylphenyl)-4,7-dimethylisoindolin-5-yl)-2-(tert-butoxy)acetic acid] | 0.004
Cc1ccc(-c2c(C)c3c(c(C)c2[C@H](OC(C)(C)C)C(=O)O)CN(Cc2cccc(C(F)(F)F)c2)C3)cc1 [Example 28, (S)-2-(tert-butoxy)-2-(4,7-dimethyl-6-(p-tolyl)-2-(3-(trifluoromethyl)benzyl)isoindolin-5-yl)acetic acid] | 0.094
Cc1ccc(-c2c(C)c3c(c(C)c2[C@H](OC(C)(C)C)C(=O)O)CN(C(=O)NCC(F)(F)F)C3)cc1 [Example 94, (S)-2-(tert-butoxy)-2-(4,7-dimethyl-6-(p-tolyl)-2-((2,2,2-trifluoroethyl)carbamoyl)isoindolin-5-yl)acetic acid] | 0.044
Cc1c(-c2c(C)c3c(c(C)c2[C@H](OC(C)(C)C)C(=O)O)CN(C(=O)N2CCCCC2)C3)cc(F)c2c1CCCO2 (atropisomer, axis not shown; (M)) [Example 101, (2S)-2-(tert-butoxy)-2-(6-(M)-(8-fluoro-5-methylchroman-6-yl)-4,7-dimethyl-2-(piperidine-1-carbonyl)isoindolin-5-yl)acetic acid] | 0.003
Cc1cc(F)cc(C(=O)N2Cc3c(C)c(-c4cc(F)c5c(c4C)CCCO5)c([C@H](OC(C)(C)C)C(=O)O)c(C)c3C2)c1 (atropisomer, axis not shown; (M)) [Example 178, (S)-2-(tert-butoxy)-2-((M)-2-(3-fluoro-5-methylbenzoyl)-6-(8-fluoro-5-methylchroman-6-yl)-4,7-dimethylisoindolin-5-yl)acetic acid] | 0.002
Cc1cc(C)cc(C(=O)N2Cc3c(C)c(-c4cc(F)c5c(c4C)CCCO5)c([C@H](OC(C)(C)C)C(=O)O)c(C)c3C2)c1 (atropisomer, axis not shown; (M)) [Example 191, (S)-2-(tert-butoxy)-2-((M)-2-(3,5-dimethylbenzoyl)-6-(8-fluoro-5-methylchroman-6-yl)-4,7-dimethylisoindolin-5-yl)acetic acid] | 0.002
Cc1ccc(-c2c(C)c3c(c(C)c2[C@H](OC(C)(C)C)C(=O)O)CN(C(=O)c2cnccc2C)C3)cc1 [Example 260, (S)-2-(tert-butoxy)-2-(4,7-dimethyl-2-(4-methylnicotinoyl)-6-(p-tolyl)isoindolin-5-yl)acetic acid] | 0.015
Cc1ccc(-c2c(C)c3c(c(C)c2[C@H](OC(C)(C)C)C(=O)O)CN(C(=O)N2CCOC[C@@H]2C)C3)cc1 [Example 91, (S)-2-(tert-butoxy)-2-(4,7-dimethyl-2-((S)-3-methylmorpholine-4-carbonyl)-6-(p-tolyl)isoindolin-5-yl)acetic acid] | 0.013
Cc1c(-c2c(C)c3c(c(C)c2[C@H](OC(C)(C)C)C(=O)O)CN(C(=O)Oc2ccccc2)C3)cc(F)c2c1CCCO2 (atropisomer, axis not shown; (M)) [Example 217, (S)-2-(tert-butoxy)-2-((M)-6-(8-fluoro-5-methylchroman-6-yl)-4,7-dimethyl-2-(phenoxycarbonyl)isoindolin-5-yl)acetic acid] | 0.012
Cc1ccc(CN2Cc3c(C)c(-c4ccc(C)cc4)c([C@H](OC(C)(C)C)C(=O)O)c(C)c3C2)cc1 [Example 20, (S)-2-(tert-butoxy)-2-(4,7-dimethyl-2-(4-methylbenzyl)-6-(p-tolyl)isoindolin-5-yl)acetic acid] | 0.115
Cc1ccc(-c2c(C)c3c(c(C)c2[C@H](OC(C)(C)C)C(=O)O)CN(C(=O)c2ccccc2)C3)cc1 [Example 229, (S)-2-(2-benzoyl-4,7-dimethyl-6-(p-tolyl)isoindolin-5-yl)-2-(tert-butoxy)acetic acid] | 0.005
Cc1c(-c2c(C)c3c(c(C)c2[C@H](OC(C)(C)C)C(=O)O)CN(C(=O)C(=O)N2CCCCC2)C3)cc(F)c2c1CCCO2 (atropisomer, axis not shown; (M)) [Example 215] | 0.01
Cc1ccc(-c2c(C)c3c(c(C)c2[C@H](OC(C)(C)C)C(=O)O)CN(C(=O)N2CCCC2)C3)cc1 [Example 35, (S)-2-(tert-butoxy)-2-(4,7-dimethyl-2-(pyrrolidine-1-carbonyl)-6-(p-tolyl)isoindolin-5-yl)acetic acid] | 0.012
Cc1cccc(C(=O)N2Cc3c(C)c(-c4cc(F)c5c(c4C)CCCO5)c([C@H](OC(C)(C)C)C(=O)O)c(C)c3C2)c1 (atropisomer, axis not shown; (M)) [Example 149, (S)-2-(tert-butoxy)-2-((M)-6-(8-fluoro-5-methylchroman-6-yl)-4,7-dimethyl-2-(3-methylbenzoyl)isoindolin-5-yl)acetic acid] | 0.002
Cc1ccc(-c2c(C)c3c(c(C)c2[C@H](OC(C)(C)C)C(=O)O)CN(C(=O)N2CC[C@H](O)C2)C3)cc1 [Example 77, (2S)-2-(tert-butoxy)-2-{2-[(3S)-3-hydroxypyrrolidine-1-carbonyl]-4,7-dimethyl-6-(4-methylphenyl)-2,3-dihydro-1H-isoindol-5-yl}acetic acid] | 0.16
Cc1ccc(-c2c(C)c3c(c(C)c2[C@H](OC(C)(C)C)C(=O)O)CN(C(=O)c2ccc(Cl)c(Cl)c2)C3)cc1 [Example 276, (S)-2-(tert-butoxy)-2-(2-(3,4-dichlorobenzoyl)-4,7-dimethyl-6-(p-tolyl)isoindolin-5-yl)acetic acid] | 0.016

Same assay, conditions: MT-4 cells; luciferase/cell titer glo readout after 96 hours; 10 point dose response

SMILES | IC50 [µM]
Cc1ccc(-c2c(C)c3c(c(C)c2[C@H](OC(C)(C)C)C(=O)O)CN(C(=O)c2nccn2C)C3)cc1 [Example 239, (S)-2-(tert-butoxy)-2-(4,7-dimethyl-2-(1-methyl-1H-imidazole-2-carbonyl)-6-(p-tolyl)isoindolin-5-yl)acetic acid] | 0.016
Cc1ccc(-c2c(C)c3c(c(C)c2[C@H](OC(C)(C)C)C(=O)O)CN(C(=O)N2CCCCC2)C3)c(Cl)c1 [Example 316, (2S)-2-(tert-butoxy)-2-(6-(2-chloro-4-methylphenyl)-4,7-dimethyl-2-(piperidine-1-carbonyl)isoindolin-5-yl)acetic acid] | 0.041
Cc1ccc(-c2c(C)c3c(c(C)c2[C@H](OC(C)(C)C)C(=O)O)CN(C(=O)c2nccn2C)C3)cc1 [Example 238, (S)-2-(tert-butoxy)-2-(4,7-dimethyl-2-(1-methyl-1H-imidazole-2-carbonyl)-6-(p-tolyl)isoindolin-5-yl)acetic acid] | 0.94
